target: T1, integrin αvβ3 (Homo sapiens, UniProt P05106+P06756); assay: Integrin αvβ3 assay (competition with vitronectin for solid phase-bound integrin αvβ3); conditions: competition with human vitronectin for binding to solid phase-bound integrin αvβ3 from human placenta; qualitative ranking only
T1 construct: from tissue; host or cells: human placenta
Procedure: Integrin αvβ3 antagonists were identified and assessed by using an assay system based on competition between the natural integrin αvβ3 ligand vitronectin and the test substance for binding to solid phase-bound integrin αvβ3.
• Coat microtiter plates with 250 ng/ml integrin αvβ3 in 0.05 M NaHCO3 pH 9.2; 0.1 ml/well; • saturate with 1% milk powder/assay buffer; 0.3 ml/well; 0.5 h/RT • wash 3× with 0.05% Tween 20/assay buffer • test substance in 0.1% milk powder/assay buffer, 50 μl/well+0 μg/ml or 2 μg/ml human vitronectin (Boehringer Ingelheim T007) in 0.1% milk powder/assay buffer, 50 μl/well; 1 h/RT • wash 3× with 0.05% Tween 20/assay buffer • 1 μg/ml anti-human vitronectin antibody coupled to peroxidase (Kordia SAVN-APHRP) in 0.1% milk powder/assay buffer; 0.1 ml/well; 1 h/RT • wash 3× with 0.05% Tween 20/assay buffer • 0.1 ml/well peroxidase substrate • stop reaction with 0.1 ml/well 2 M H2SO4 • measure absorption at 450 nm
Integrin αvβ3: human placenta is solubilized with Nonidet, and integrin αvβ3 is affinity-purified on a GRGDSPK matrix (elution with EDTA). Contamination by integrin αIIbβ3 and human serum albumin, and the detergent and EDTA, are removed by anion exchange chromatography.
Assay buffer: 50 mM Tris pH 7.5; 100 mM NaCl; 1 mM CaCl2; 1 mM MgCl2; 10 μM MnCl2
Peroxidase substrate: mix 0.1 ml of TMB solution (42 mM TMB in DMSO) and 10 ml of substrate buffer (0.1 M Na acetate, pH 4.9) and then add 14.7 μl of 3% H2O2.
Various dilutions of the test substances are used in the assay, and the IC50 values are determined (concentration of the antagonist at which 50% of the ligand is displaced).

IC50 values (concentration of the antagonist at which 50% of the ligand is displaced), best results:
CC(=O)OC1c2ccccc2C(=O)N(CC(=O)NCc2cnc(NC(=N)N)s2)c2ccccc21 (stereo not shown) [Example I.B.46, 5-(2-{[(2-{[Amino(imino)methyl]amino}-1,3-thiazol-5-yl)-methyl]amino}-2-oxoethyl)-6-oxo-6,11-dihydro-5H-dibenzo[b,e]-azepin-11-yl acetate]
CC(=O)OC1c2ccccc2C(=O)N(CC(=O)NCc2ccc(Nc3nc4ccccc4[nH]3)cc2)c2ccccc21 (stereo not shown) [Example I.B.37, 5-(2-{[4-(1H-Benzimidazol-2-ylamino)benzyl]amino}-2-oxoethyl)-6-oxo-6,11-dihydro-5H-dibenzo[b,e]azepin-11-yl acetate]
O=C(O)CC1c2ccccc2C(=O)N(CC(=O)NCc2ccc(NC(=O)NCc3ccccc3)cc2)c2ccccc21 (stereo not shown) [Example I.B.52, (5-{2-[(4-{[(Benzylamino)carbonyl]amino}benzyl)amino]-2-oxoethyl}-6-oxo-6,11-dihydro-5H-dibenzo[b,e]azepin-11-yl)acetic acid]
CC(=O)OC1c2ccccc2C(=O)N(Cc2nc(C(=O)NCc3cc(CNc4ccccn4)cs3)cs2)c2ccccc21 (stereo not shown) [Example I.B.118, 6-Oxo-5-[(4-{[({4-[(2-pyridinylamino)methyl]-2-thienyl}methyl)-amino]carbonyl}-1,3-thiazol-2-yl)methyl]-6,11-dihydro-5H-dibenzo [b,e]azepin-11-yl acetate]
